One molecule from US11800869B2, “Use of 6-oxo-1,4,5,6-tetrahydropyridazine-3-carboxylic acid, 1-methyl 6-oxo-1,4,5,6-tetrahydropyridazine-3-carboxylic acid and 1-alkyl-6-oxo-1,4,5,6-tetrahydropyridazine-3-carboxylic acid for improving growth performance in plants” (Advanced Crop Chem LLP, priority 2020, dated 2023) can be followed below.

Common to all, as to format: in vivo
Test [1] relates to Field grown wheat plants (Var: AWC 13). Kind of test: Foliar treatment of field grown wheat (Example 6). The conditions noted are these: foliar treatment at Zadoks GS 25-26, 100 g in 200 L water, mean of 10 plants. The method, then:
Field grown wheat plants (Var: AWC 13) were given foliar treatment at Zadoks GS 25-26 (FIG. 1) of 6-oxo-1,4,5,6 tetrahydropyridazine-3-carboxylic acid (THP) or 1-methyl 6-oxo-1,4,5,6 tetrahydropyridazine-3-carboxylic acid (MTHP) both at 100 g in 200 L water plus 0.25% Nouryon wetter. Plants were grown under standard UK wheat growing cultural practice (https://andb.org.uk/wheatgg). Yield was assessed at harvest.

Test [2] has as its system Wheat plants (Variety AWC 13). Briefly: Foliar treatment of wheat, foliar and root dry biomass (Example 5). The settings on record: foliar treatment at Zadoks GS 15-20, 30 days after application, mean of 10 plants. The text has this:
Wheat plants (Variety AWC 13) were given a foliar treatment of 6-oxo-1,4,5,6-tetrahydropyridazine-3-carboxylic acid(THP) or 1-methyl 6-oxo-1,4,5,6 tetrahydropyridazine-3-carboxylic acid (MTHP) and their foliar and root dry biomass determined 30 days after application. The foliar applications were applied at approximately at Zadoks GS 15-20 (see FIG. 1) and assessed 30 days later at Zadoks GS 22-24 (also shown in FIG. 1).

The subject of test [3] is wheat plants (Variety Skyfall). Briefly: Foliar treatment of greenhouse grown wheat, foliar and root biomass (Example 4). The conditions noted are these: foliar treatment, 30 days later, Zadocks growth stage 22-24. As for the experimental part:
Wheat, corn and pepper seeds were treated with 6-oxo-1,4,5,6-tetrahydropyridizine-3-carboxylic acid (THP) using the same methodology and growth conditions as described in example 1 and the resulting plants were also treated with a light foliar cover spray using an electric hand-held sprayer. (100 g in 200 L water plus 0.25% Nouryon wetter) of 6-oxo-1,4,5,6 tetrahydropyridazine-3-carboxylic acid (30 days post emergence (wheat at Zadoks GS 14 (see FIG. 1), maize at V2, Pepper at 3-4 leaf stage) and then assessed for root and shoot biomass 45 days later. At 75 days post planting the plants were assessed for root and shoot biomass as measured with dry weight. Greenhouse grown wheat plants (Variety […]) were given foliar treatment of 1-methyl 6-oxo-1,4,5,6 tetrahydropyridazine-3-carboxylic acid (MTHP) or 6-oxo-1,4,5,6 tetrahydropyridazine-3-carboxylic acid (THP), utilizing the same methodology as in example 2. Foliar and root biomass were determined 30 days later at Zadocks growth stage 22-24.

Test [4] concerns Winter wheat variety AWC 13. Kind of test: Wheat seed treatment, greenhouse, root biomass (Example 1). The conditions noted are these: seed treatment 10g per 1 ton of seed; greenhouse 21° C; 30 days after planting; untreated 0.65. As for the experimental part:
Wheat seeds were treated with 6-oxo-1,4,5,6 tetrahydropyridazine-3-carboxylic acid (THP) and treated plants to examine the impact on shoot and root biomass. Winter wheat variety AWC 13 seeds were treated with either 6-oxo-1,4,5,6-tetrahydropyridazine-3-carboxylic acid (THP) or 1-methyl 6-oxo-1,4,5,6 tetrahydropyridazine-3-carboxylic acid (MTHP) at an effective rate of 10g diluted in 2 L water plus 0.25% Nouryon wetter and applied to 1 ton of seed. These seed were planted in coarse river sand and grown in a greenhouse under ambient light at the greenhouse at 21° C. Plants were irrigated every other day with water containing 50% strength Hoaglands solution. Plants were assessed for emergence and biomass accumulation 30 days after planting. The plants from seeds treated with 6-oxo-1,4,5,6-tetrahydropyridizin-3-carboxylic acid or 1-methyl 6-oxo-1,4,5,6 tetrahydropyridazine-3-carboxylic acid had larger root biomasses (0.83, 0.85 g, dry weight/plant) compared with plants from untreated seeds (0.65 g dry weight/plant).

Test [5] deals with Wheat. Kind of test: Wheat seed treatment, field grown, root biomass (Example 7). The conditions noted are these: untreated 0.66. As for the experimental part:
Wheat seeds were treated with 1-methyl 6-oxo-1,4,5,6 tetrahydropyridazine-3-carboxylic acid treated plants to examine the impact on root biomass for field grown plants. Wheat seeds were treated with 1-methyl 6-oxo-1,4,5,6 tetrahydropyridazine-3-carboxylic acid and field grown. The plants from seeds treated with 1-methyl 6-oxo-1,4,5,6 tetrahydropyridazine-3-carboxylic acid had larger root biomass (0.84 g dry weight/plant) compared with plants from untreated seeds (0.66 g dry weight/plant).

The structures appear in SMILES notation.

`CN1N=C(C(=O)O)CCC1=O` [MTHP, 1-methyl 6-oxo-1,4,5,6 tetrahydropyridazine-3-carboxylic acid]: the “Dry Weight Shoot” value turned out to be 0.98 in test [1] (Con 0.47), 0.98 in test [2] (Con 0.47) and 0.7 g in test [3] (Con 0.55). Besides, the “Dry Weight Root” value in test [1] (Con 0.65) was 2.06; in test [2] (Con 0.65) it was 2.06; in test [3] (Con 1.03), 1.64 g. In addition, the root biomass is recorded as 0.85 g, dry weight/plant in test [4] and 0.84 g dry weight/plant in test [5].
